Test results reported in patent US20210346414A1, “APPLICATION OF GLYCOSIDES IN THE PREPARATION OF DRUGS FOR PREVENTING AND TREATING DIABETES COMPLICATIONS” (CHENGDU SINNOCEAN BIOTECHNOLOGY CO., LTD., priority 2018, published 2021).
“And” between values parts separate entries of the source, which are not always exact repeats. Equal values may be shown once.

How the values were obtained:
Type in all cases: in vivo
[1] = system: spontaneous type II diabetic db/db mice; experiment: Kidney histopathology grading after treatment; design: key to kidney / Basophilic changes in renal tubules / Monocyte infiltration / Hypertrophy of renal tubular epithelial cells / Dilation of the renal pelvis / Protein casts / Glomerular dilation / Glomerulosclerosis: “N” means normal tissue morphology and structure; “E” means changed tissue morphology and structure; “—” means no such pathological change; details: 12 weeks
Description: (§1) Design of test groups: db/m group, db/db mice are divided into the following six groups: blank control group (no glucose), negative control group (model group), positive control group (350 mg/kg metformin), H2 low dose group (40 mg/kg), H2 medium dose group (80 mg/kg), H2 high dose group (160 mg/kg); • Number of animals: 12 mice for each group; • Sex: male;
(§2) Administration frequency: once a day, for 12 weeks; db/m group, blank control group and negative control group: receiving distilled water; positive control group: positive drug metformin; other administration groups: receiving different dose of test drug H2, respectively; the day of administration was defined as the first day of the test.
After completion of the test, the kidney was dissected and collected. The histopathological results of the kidney indicated the grades by referring to the principles and standards in literature
(Fermented Milk has Anti-diabetic Effects: Anti-diabetic Effect of Fermented Milk Containing Conjugated Linoleic Acid on Type II Diabetes Mellitus, Korean J. Food Sci. An., Vol. 36, No. 2 (2016)).

[2] = system: spontaneous type II diabetic db/db mice; experiment: Hypoglycemic effect test: tail vein blood glucose during 12 weeks of dosing
Description: as §1, §2
Sampling frequency: blood glucose was detected once every 2 weeks after grouping, and then after glucose was administrated, the blood glucose was further measured. Sampling site: tail vein; sampling volume: about 1 drop; blood glucose detection: real-time detection by blood glucose meter.

[3] = system: spontaneous type II diabetic db/db mice; experiment: Kidney function: blood urea nitrogen (UREA), blood creatinine (CREA) and renal index before and after administration; details: MEAN ± SEM
Description: as §1, §2
(1) Changes of blood urea nitrogen (UREA) and blood creatinine (CREA) as well as renal index before and after administration

[4] = system: spontaneous type II diabetic db/db mice; experiment: Prevention and treatment of retinopathy: pathological staining of eyeball, grading of retinal ganglion cell layer degeneration; design: key to Left eye / Right eye / Retinal degeneration, ganglion cell layer (right eye) / Retinal degeneration, ganglion cell layer (left eye): “N” means normal tissue morphology and structure; “E” means changed tissue morphology and structure; “—” means no such pathological change; details: 12 weeks
Description: as §1, §2
During the test period, compared with the animals in normal control group, the retinal ganglion cell layer of animals in each group had different degrees of degeneration except for the test drug H2 high-dose group. According to the severity of the degeneration of the retinal ganglion cell layers, there were 0-4 grades according to the pathological grading principle in the literature
(Fermented Milk has Anti-diabetic Effects: Anti-diabetic Effect of Fermented Milk Containing Conjugated Linoleic Acid on Type II Diabetes Mellitus, Korean J. Food Sci. An., Vol. 36, No. 2 (2016)). The larger the value, the more severe the disease.

[5] = metformin 350 mg/kg oral gavage once a day, individual animals
[6] = metformin 350 mg/kg oral gavage once a day, individual animals, grade
[7] = metformin 350 mg/kg oral gavage once a day, MEAN ± SEM
[8] = metformin 350 mg/kg oral gavage once a day, 12 weeks
[9] = metformin 350 mg/kg oral gavage once a day, individual animals, grades 0-4, larger = more severe

## CN(C)C(=N)N=C(N)N [metformin, Metformin]
[1]; [5]
  kidney: E
[1]; [6]
  Basophilic changes in renal tubules: — (8×) and 1
  Dilation of the renal pelvis: —
  Glomerular dilation: —
  Glomerulosclerosis: 1 and — (8×)
  Hypertrophy of renal tubular epithelial cells: —
  Monocyte infiltration: —
  Proliferation of glomerular mesangum or mesangial cells: 1 (3×) and 2 (6×)
  Protein casts: —
[1]; metformin 350 mg/kg, no statistical difference vs. negative control group
  Proliferation of glomerular mesangum or mesangial cells (in words): showed the effect trend of alleviating the proliferation of glomerular mesangum or mesangial cells
[2]; [7]
  Blood glucose concentration, Administrating for 15 days: 6.95 ± 0.57 mmol/L
  Blood glucose concentration, Administrating for 29 days: 8.30 ± 0.94 mmol/L
  Blood glucose concentration, Administrating for 43 days: 8.93 ± 1.15 mmol/L
  Blood glucose concentration, Administrating for 57 days: 8.92 ± 1.12 mmol/L
  Blood glucose concentration, Administrating for 72 days: 8.80 ± 1.11 mmol/L
  Blood glucose concentration, Administrating for one day: 13.78 ± 1.74 mmol/L
[2]; metformin 350 mg/kg, vs. negative control group, from the 15th day, P<0.001
  Hypoglycemic effect (in words): could significantly reduce the blood sugar of db/db mice
[3]; metformin 350 mg/kg group, before administration (baseline)
  Before administration CREA: 4.50 ± 1.38 µmol/L
[3]; [8]
  Change rate of CREA: 0.83 ± 0.17
  Renal index: 0.43 ± 0.03%
[4]; [5]
  Left eye: E (3×) and N (6×)
  Right eye: N (8×) and E
[4]; [9]
  Retinal degeneration, ganglion cell layer (left eye): 2 (2×) and — (6×) and 1
  Retinal degeneration, ganglion cell layer (right eye): — (8×) and 1
[4]; metformin 350 mg/kg, vs. negative control group
  Improvement of retinopathy (in words): hardly improved the symptoms of retinopathy
